Measurements as given in patent publication US4017611A, “Control of insects with 3-hydroxymethacrylic acid methyl ester dimethylthionophosphate” (priority 1970, dated 1977).

Experiments:
adult houseflies = assay: Gas action against adult houseflies; type: in vivo, Musca domestica (housefly); settings: 10 mg active substance, 2 liter glass cylinder
Protocol: Using a pipette 10 mg of active substance were placed on a watch glass which was then covered with a wire mesh and placed in a 2 liter glass cylinder. Immediately thereafter 30 houseflies were introduced into the container which was then sealed.
A comparative test between compound 1 and PHOSDRIN (Registered Trade Mark) carried out according to this method gave the following mortality periods in minutes for 10%, 50% and 100% kill of the test animals.

insects = assay: Insecticidal action and effective life (general statement); type: in vivo

SMILES: COC(=O)C(C)=COP(=S)(OC)OC [Compound I, 3-hydroxymethacrylic acid methyl ester dimethylthionophosphate]
- Mortality time for 10% of the houseflies (adult houseflies; 10% kill): 5 min
- Mortality time for 50% of the houseflies (adult houseflies; 50% kill): 6 min
- Mortality time for 100% of the houseflies (adult houseflies; 100% kill): 25 min
- insecticidal action (insects; compared to compounds of French Pat. No. 1530955, PHOSDRIN or DDVP): stronger insecticidal action
- effective life (insects; in vivo): more than 4 months
